One compound from US20090118135A1, “METHODS AND COMPOUNDS FOR REGULATING APOPTOSIS” (The Burnham Institute, priority 2007, published 2009) can be followed below.

The structures appear in SMILES notation.

Experiment [1] concerns the target T1, GST-Bfl-1 (Homo sapiens, UniProt Q16548).
T1 construct: lacking their C-terminal transmembrane domains (about the last 20 amino acids) (“ΔTM”); made in house; host or cells: XL-1 Blue E. coli, pGEX 4T-1
T1 sequence (Q16548 1-155 limits assumed): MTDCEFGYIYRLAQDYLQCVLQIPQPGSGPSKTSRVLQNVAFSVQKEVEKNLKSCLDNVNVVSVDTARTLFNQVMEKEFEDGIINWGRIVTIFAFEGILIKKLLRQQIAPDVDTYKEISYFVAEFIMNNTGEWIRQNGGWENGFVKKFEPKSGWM
The experiment is described as follows: FITC-TR3-9-r8 direct binding fluorescence polarization assay, Bfl-1. Conditions: FIG. 2B; result in words.

Experiment [2] addresses GST-Bcl-2 (Homo sapiens, UniProt P10415). Put plainly: FITC-TR3-9-r8 direct binding fluorescence polarization assay, Bcl-2. More on the design: their C-terminal transmembrane domains (˜20 amino acids) were deleted to enhance protein solubility; made in house; host or cells: E. coli (BL21 Star (DE3); XL-1 Blue), pGEX-4T-1. Conditions: FIG. 2A; result in words. In general terms: In fluorescence polarisation assays a small probe gives low polarisation when free and higher when bound to something large.

Experiment [3] deals with T2, GST-Bcl-W (Homo sapiens, UniProt Q92843).
T2 construct: GST-fusion proteins containing ΔTM versions of Bcl-2, Bcl-XL, Bfl-1, Mcl-1, Bcl-W, and Bcl-B; made in house
T2 sequence (Q92843 1-173 limits assumed): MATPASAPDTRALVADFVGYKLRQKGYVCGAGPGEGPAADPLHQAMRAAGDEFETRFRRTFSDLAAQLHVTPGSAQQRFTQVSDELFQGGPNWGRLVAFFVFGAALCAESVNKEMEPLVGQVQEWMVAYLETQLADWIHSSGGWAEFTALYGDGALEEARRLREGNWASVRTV
The experiment is described as follows: FITC-TR3-9-r8 direct binding fluorescence polarization assay, Bcl-W. The following applies: FIG. 2B; result in words.

Experiment [4] has as its target T3, GST-Bcl-B (Homo sapiens, UniProt Q9HD36).
T3 sequence (Q9HD36 1-182 limits assumed): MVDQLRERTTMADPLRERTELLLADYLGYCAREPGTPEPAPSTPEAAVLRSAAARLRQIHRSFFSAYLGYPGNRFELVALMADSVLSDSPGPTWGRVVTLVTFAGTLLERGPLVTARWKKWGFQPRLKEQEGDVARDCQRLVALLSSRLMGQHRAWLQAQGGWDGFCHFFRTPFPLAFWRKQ
Put plainly: FITC-TR3-r8 direct binding fluorescence polarization assay, Bcl-B. Also noted: their C-terminal transmembrane domains (˜20 amino acids) were deleted to enhance protein solubility; made in house; host or cells: E. coli (BL21 Star (DE3); XL-1 Blue), pGEX-4T-1. The following applies: FIG. 2A; result in words.

In experiment [5] the target is T4, GST-Bcl-XL (Homo sapiens, UniProt Q07817).
T4 construct: lacking their C-terminal transmembrane domains (about the last 20 amino acids) (“ΔTM”); made in house; host or cells: XL-1 Blue E. coli, pGEX 4T-1
T4 sequence (Q07817 1-212 limits assumed): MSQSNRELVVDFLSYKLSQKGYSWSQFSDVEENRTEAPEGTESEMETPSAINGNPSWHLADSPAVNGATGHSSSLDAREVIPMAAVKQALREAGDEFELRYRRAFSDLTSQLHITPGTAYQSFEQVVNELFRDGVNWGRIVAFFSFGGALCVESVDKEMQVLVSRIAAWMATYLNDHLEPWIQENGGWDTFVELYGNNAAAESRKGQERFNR
The experiment is described as follows: FITC-TR3-9-r8 direct binding fluorescence polarization assay, Bcl-XL. Conditions: FIG. 2A; result in words.

Chain of GST-Bcl-2 (P10415 1-218 limits assumed): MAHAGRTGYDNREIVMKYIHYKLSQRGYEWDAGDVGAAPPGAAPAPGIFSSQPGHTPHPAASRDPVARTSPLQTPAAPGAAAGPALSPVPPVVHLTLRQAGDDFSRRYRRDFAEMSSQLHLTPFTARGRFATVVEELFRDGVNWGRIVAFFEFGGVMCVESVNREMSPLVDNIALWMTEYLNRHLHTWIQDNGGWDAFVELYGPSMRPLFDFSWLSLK

Consider `CC(C)C[C@H](NC(=O)[C@H](CC(C)C)NC(=O)[C@H](CO)NC(=O)[C@H](Cc1c[nH]cn1)NC(=O)[C@H](CC(C)C)NC(=O)[C@H](CO)NC(=O)[C@H](CCCNC(=N)N)NC(=O)[C@H](CO)NC(=O)[C@H](Cc1ccccc1)NC(=O)CCCCCNC(=S)Nc1ccc2c(c1)C(=O)OC21c2ccc(O)cc2Oc2cc(O)ccc21)C(=O)NCC(=O)NCCCCCC(=O)N[C@H](CCCNC(=N)N)C(=O)N[C@H](CCCNC(=N)N)C(=O)N[C@H](CCCNC(=N)N)C(=O)N[C@H](CCCNC(=N)N)C(=O)N[C@H](CCCNC(=N)N)C(=O)N[C@H](CCCNC(=N)N)C(=O)N[C@H](CCCNC(=N)N)C(=O)N[C@H](CCCNC(=N)N)C(N)=O` [FITC-TR3-9-r8], for which the “binding to GST-Bfl-1” value in experiment [1] is given as “Binding to GST-Bfl-1”. Further, the “binding to GST-Bcl-2” value in experiment [2] is listed as “Binding to GST-Bcl-2”. The “binding to GST-Bcl-W” value in experiment [3] is reported as “but not GST-Bcl-W”. Besides, the “binding to GST-Bcl-B” value in experiment [4] is “Binding to GST-Bcl-2 and GST-Bcl-B”. In addition, the “binding to GST-Bcl-XL” value in experiment [5] is recorded as “but not GST-Bcl-XL”.
